Laboratory results as given in patent US7211572B2 (Japan Tobacco Inc., priority 2003, dated 2007).
Where a name gives a salt, the structure may show the parent alone.

What follows are molecules tested against T1, HIV integrase (Human immunodeficiency virus type 1 group M subtype B, UniProt P12497, F1332H) (assay: Determination of enzyme (HIV integrase) inhibitory activity). Settings: recombinant HIV integrase (F185H), strand transfer ELISA, absorbance at 450 nm.
T1 construct: HIV integrase full length gene; made in house; host or cells: Escherichia coli BL21(DE3), plasmid pET21a-INH
Assay type: biochemical
How it was run: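 Full-length integrase with F185H, expressed in E. coli and purified, was reacted for 60 min at 37 °C with compound and biotinylated donor DNA bound to streptavidin plates. Target DNA was added for 10 min, then anti-digoxigenin-peroxidase detection at A450; IC50 from % inhibition versus enzyme-free blank.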
In the case of `CC(=O)Nc1cn2ccn(Cc3cccc(Cl)c3F)c(=O)c2c(O)c1=O` [Example 325, N-[2-(3-chloro-2-fluorobenzyl)-9-hydroxy-1,8-dioxo-1,8-dihydro-2H-pyrido[1,2-a]pyrazin-7-yl]acetamide hydrochloride], the IC50 is reported as 10 to 100 nM.
`COC(=O)c1cc(F)ccc1CN1CCn2cc(-c3nccs3)c(=O)c(O)c2C1=O` [Example 326, methyl 5-fluoro-2-[9-hydroxy-1,8-dioxo-7-(thiazol-2-yl)-1,3,4,8-tetrahydro-pyrido[1,2-a]pyrazin-2-ylmethyl]benzoate] gave an IC50 of 100 to 1000 nM.
`O=C1c2c(O)c(=O)c(-c3ccccn3)cn2CCN1Cc1ccc(F)c(Cl)c1` [Example 327, 2-(3-chloro-4-fluorobenzyl)-9-hydroxy-7-(pyridin-2-yl)-3,4-dihydro-2H-pyrido[1,2-a]pyrazine-1,8-dione hydrochloride] was tested, and the IC50 was less than 10 nM.
In the case of `O=C1c2c(O)c(=O)c(-c3cccnc3)cn2CCN1Cc1cccc(Cl)c1F` [Example 328, 2-(3-chloro-2-fluorobenzyl)-9-hydroxy-7-(pyridin-3-yl)-3,4-dihydro-2H-pyrido[1,2-a]pyrazine-1,8-dione hydrochloride], the IC50 is reported as 10 to 100 nM.
For `O=C1c2c(O)c(=O)c(-c3ccccn3)cn2CCN1CCCc1c(F)cccc1Cl` [Example 329, 2-[3-(2-chloro-6-fluorophenyl)propyl]-9-hydroxy-7-(pyridin-2-yl)-3,4-dihydro-2H-pyrido[1,2-a]pyrazine-1,8-dione hydrochloride], the IC50 was 10 to 100 nM.
`O=C1c2c(O)c(=O)c(-c3nccs3)cn2CCN1Cc1cc2ccccc2o1` [Example 330, 2-(benzofuran-2-ylmethyl)-9-hydroxy-7-(thiazol-2-yl)-3,4-dihydro-2H-pyrido[1,2-a]pyrazine-1,8-dione] showed an IC50 of less than 10 nM.
Molecule `O=C(NC(Cc1ccccc1)c1ccccc1)c1cn2c(c(O)c1=O)C(=O)N(Cc1cccc(Cl)c1)CC2` (centres unmarked) [Example 331, N-(1,2-diphenylethyl)-2-(3-chlorobenzyl)-9-hydroxy-1,8-dioxo-1,3,4,8-tetrahydro-2H-pyrido[1,2-a]pyrazine-7-carboxamide] has an IC50 of 10 to 100 nM.
`CC(=O)Nc1cn2c(c(O)c1=O)C(=O)N(Cc1cccc(Cl)c1F)CC2` [Example 332, N-[2-(3-chloro-2-fluorobenzyl)-9-hydroxy-1,8-dioxo-1,3,4,8-tetrahydro-2H-pyrido[1,2-a]pyrazin-7-yl]acetamide] gave an IC50 of 10 to 100 nM.
`O=C1c2c(O)c(=O)c(-c3nccs3)cn2CCN1CCCc1ccccc1F` [Example 333, 2-[3-(2-fluorophenyl)propyl)-9-hydroxy-7-(thiazol-2-yl)-3,4-dihydro-2H-pyrido[1,2-a]pyrazine-1,8-dione] gave an IC50 of 10 to 100 nM.
With `O=C(NC(CCc1ccccc1)c1ccccc1)c1cn2c(c(O)c1=O)C(=O)N(Cc1cccc(Cl)c1)CC2` (centres unmarked) [Example 334, N-(1,3-diphenylpropyl)-2-(3-chlorobenzyl)-9-hydroxy-1,8-dioxo-1,3,4,8-tetrahydro-2H-pyrido[1,2-a]pyrazine-7-carboxamide] the IC50 was 10 to 100 nM.
Molecule `CNC(=O)c1cc(F)ccc1CCCN1CCn2cc(-c3nccs3)c(=O)c(O)c2C1=O` [Example 335, 5-fluoro-2-{3-[9-hydroxy-1,8-dioxo-7-(thiazol-2-yl)-1,3,4,8-tetrahydro-pyrido[1,2-a]pyrazin-2-yl]propyl)-N-methylbenzamide] has an IC50 of 10 to 100 nM.
With `CC(C)(C)C(=O)c1cn2c(c(O)c1=O)C(=O)N(CCCc1c(F)cccc1Cl)CC2` [Example 336, 2-[3-(2-chloro-6-fluorophenyl)propyl]-7-(2,2-dimethylpropionyl)-9-hydroxy-3,4-dihydro-2H-pyrido[1,2-a]pyrazine-1,8-dione] the IC50 was less than 10 nM.
`CC(C)C(=O)c1cn2c(c(O)c1=O)C(=O)N(Cc1cccc(Cl)c1)CC2` [Example 337, 2-(3-chlorobenzyl)-9-hydroxy-7-isobutyryl-3,4-dihydro-2H-pyrido[1,2-a]pyrazine-1,8-dione] gave an IC50 of less than 10 nM.
In the case of `O=C1c2c(O)c(=O)c(-c3nccs3)cn2CCN1CCCCc1ccccc1` [Example 338, 9-hydroxy-2-(4-phenylbutyl)-7-(thiazol-2-yl)-3,4-dihydro-2H-pyrido[1,2-a]pyrazine-1,8-dione hydrochloride], the IC50 is reported as 10 to 100 nM.
